# Measurements from patent US20200317642A1, “AMINE-SUBSTITUTED HETEROCYCLIC COMPOUNDS AS EHMT2 INHIBITORS AND DERIVATIVES THEREOF” (Epizyme, Inc., priority 2017, published 2020).
# Target: T1, EHMT1 (Homo sapiens, UniProt Q9H9B1)
# T1 sequence (Q9H9B1 1-1298): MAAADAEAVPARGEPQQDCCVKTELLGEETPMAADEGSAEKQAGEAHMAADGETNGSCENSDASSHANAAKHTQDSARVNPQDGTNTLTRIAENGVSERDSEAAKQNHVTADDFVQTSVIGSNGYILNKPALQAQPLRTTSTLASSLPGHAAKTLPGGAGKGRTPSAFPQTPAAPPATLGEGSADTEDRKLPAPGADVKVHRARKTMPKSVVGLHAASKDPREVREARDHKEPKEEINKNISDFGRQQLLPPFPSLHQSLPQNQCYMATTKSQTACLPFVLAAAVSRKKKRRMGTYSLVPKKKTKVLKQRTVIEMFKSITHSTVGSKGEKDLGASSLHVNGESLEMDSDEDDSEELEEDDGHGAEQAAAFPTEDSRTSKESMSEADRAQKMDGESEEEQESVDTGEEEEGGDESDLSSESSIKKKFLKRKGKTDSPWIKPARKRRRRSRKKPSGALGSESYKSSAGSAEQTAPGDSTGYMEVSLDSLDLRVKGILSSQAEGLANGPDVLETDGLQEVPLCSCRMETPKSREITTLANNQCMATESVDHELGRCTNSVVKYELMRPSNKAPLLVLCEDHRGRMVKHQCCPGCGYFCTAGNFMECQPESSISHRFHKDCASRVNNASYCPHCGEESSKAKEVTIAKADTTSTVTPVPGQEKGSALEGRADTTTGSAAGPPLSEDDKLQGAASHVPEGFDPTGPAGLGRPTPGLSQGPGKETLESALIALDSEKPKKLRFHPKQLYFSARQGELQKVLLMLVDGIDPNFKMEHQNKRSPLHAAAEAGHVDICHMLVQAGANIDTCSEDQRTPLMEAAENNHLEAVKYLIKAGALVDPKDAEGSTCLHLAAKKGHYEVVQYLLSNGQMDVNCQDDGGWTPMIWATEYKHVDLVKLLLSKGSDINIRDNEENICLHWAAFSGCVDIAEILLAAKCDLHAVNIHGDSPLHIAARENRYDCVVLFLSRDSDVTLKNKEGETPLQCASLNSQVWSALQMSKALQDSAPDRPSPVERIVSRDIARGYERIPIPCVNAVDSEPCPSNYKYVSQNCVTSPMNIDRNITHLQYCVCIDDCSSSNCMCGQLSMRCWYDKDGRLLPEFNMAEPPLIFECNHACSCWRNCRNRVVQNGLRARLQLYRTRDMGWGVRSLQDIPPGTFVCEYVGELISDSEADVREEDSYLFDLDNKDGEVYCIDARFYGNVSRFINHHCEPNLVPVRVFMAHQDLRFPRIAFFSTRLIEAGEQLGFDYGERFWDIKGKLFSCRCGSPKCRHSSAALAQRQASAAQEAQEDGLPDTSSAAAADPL
# Experiment: EHMT1 PEP enzyme assay
# Format: biochemical
# Conditions: Table 3; read-out: EHMT1 PEP (IC50 μM)
row,Structure (SMILES),IC50 [µM]
1,"CNc1cc(C)nc(Nc2ccc(Cl)c(C(=O)Nc3cocn3)c2)n1 [Compound 14, 2-chloro-5-[[4-methyl-6-(methylamino)pyrimidin-2-yl]amino]-N-(1,3-oxazol-4-yl)benzamide]",1 to 10
2,CNc1cc(C)nc(Nc2ccc(OC)c(CNCCN3CCC[C@H]3C)c2)n1 [Compound 31],< 0.1
3,CNc1cc(C)nc(Nc2ccc(Cl)c(C(=O)Nc3ccccc3)c2)n1 [Compound 10],1 to 10
4,CNc1cc(C)nc(Nc2ccc(Cl)c(C(=O)NCC3CCC3)c2)n1 [Compound 3],0.1 to 1
5,CNc1cc(C)nc(Nc2ccc(C)c(C(=O)Nc3cn(C4CC4)cn3)c2)n1 [Compound 36],> 10
6,CNc1cc(C)nc(Nc2ccc(OC)c(CN[C@H](C)CN3CCCC3)c2)n1 [Compound 48],0.1 to 1
7,"CNc1cc(C)nc(Nc2ccc(Br)c(CNCCN3CCCC3)c2)n1 [Compound 1, 2-N-[4-bromo-3-([[2-(pyrrolidin-1-yl)ethyl]amino]methyl)phenyl]-4-N,6-dimethylpyrimidine-2,4-diamine]",< 0.1
8,CNc1cc(C)nc(Nc2ccc(Cl)c(C(=O)Nc3cn(C)cn3)c2)n1 [Compound 15],> 10
9,CNc1cc(C)nc(Nc2ccc(Cl)c(C(=O)NCC3CC3)c2)n1 [Compound 4],1 to 10
10,"CNc1cc(C)nc(Nc2ccc(OC)c(C#CCN3CCNCC3)c2)n1 [Compound 28, 2-N-[4-methoxy-3-[3-(piperazin-1-yl)prop-1-yn-1-yl]phenyl]-4-N,6-dimethylpyrimidine-2,4-diamine]",< 0.1
11,CNc1cc(C)nc(Nc2ccc(OC)c(OC[C@H](O)CN3CCCCC3)c2)n1 [Compound 40],> 10
12,CNc1cc(C)nc(Nc2ccc(OC)c(C#CC[N+](C)(C)CCN)c2)n1 [Compound 45],> 10
13,CNc1cc(C)nc(Nc2ccc(OC)c(C#CCNCCN(C)C)c2)n1 [Compound 49],0.1 to 1

# Next, values leading:
row,IC50 [µM],Structure (SMILES)
1,0.1 to 1,CNc1cc(C)nc(Nc2ccc(OC)c(CNCCN3CC[C@@H](C)C3)c2)n1 [Compound 38]
2,0.1 to 1,CNc1cc(C)nc(Nc2ccc(OC)c(CN[C@@H](C)CN3CCCC3)c2)n1 [Compound 47]
3,0.1 to 1,CNc1cc(C)nc(Nc2ccc(OC)c(CNCCN3CCC[C@@H]3C)c2)n1 [Compound 32]
4,1 to 10,CNc1cc(C)nc(Nc2ccc(C)c(C(=O)Nc3ncn(C)n3)c2)n1 [Compound 33]
5,0.1 to 1,CNc1cc(C)nc(Nc2ccc(OC)c(CNCCN3CC[C@H](C)C3)c2)n1 [Compound 39]
6,> 10,CNc1cc(C)nc(Nc2ccc(Cl)c(C(=O)NC3CCOCC3)c2)n1 [Compound 8]
7,< 0.1,CNc1cc(C)nc(Nc2ccc(Cl)c(C(=O)NCCN3CCCC3)c2)n1 [Compound 7]
8,> 10,CNc1cc(C)nc(Nc2ccc(OC)c(CNC[C@H](C)N3CCCC3)c2)n1 [Compound 43]
9,0.1 to 1,CNc1cc(C)nc(Nc2ccc(Cl)c(C(=O)Nc3cscn3)c2)n1 [Compound 13]
10,< 0.1,"CNc1cc(C)nc(Nc2ccc(C3CC3)c(CNCCN3CCCC3)c2)n1 [Compound 11, 2-N-[4-cyclopropyl-3-([[2-(pyrrolidin-1-yl)ethyl]amino]methyl)phenyl]-4-N,6-dimethylpyrimidine-2,4-diamine]"
11,> 10,CNc1cc(C)nc(Nc2ccc(OC)c(OC[C@H](O)CN3CC4(CC4)C3)c2)n1 [Compound 41]
12,1 to 10,"CNc1cc(C)nc(Nc2ccc(Cl)c(C(=O)NCC3COC3)c2)n1 [Compound 2, 2-chloro-5-[[4-methyl-6-(methylamino)pyrimidin-2-yl]amino]-N-(oxetan-3-ylmethyl)benzamide]"
13,1 to 10,CNc1cc(C)nc(Nc2ccc(Cl)c(C(=O)Nc3ncco3)c2)n1 [Compound 6]
14,0.1 to 1,CNc1cc(C)nc(Nc2ccc(OC)c(CNC[C@@H](C)N3CCCC3)c2)n1 [Compound 42]

# Same assay, conditions: Table 3A; read-out: EHMT1 (IC50 μM)
row,Structure (SMILES),IC50 [µM]
1,CNc1cc(C)nc(Nc2ccc(OC)c(-n3cc([C@@H]4CCCN4)nn3)c2F)n1 [Compound A4S],0.01 to 0.1
2,CNc1cc(C)nc(Nc2ccc(OC)c(-n3cc(C4CCCN4)nn3)c2F)n1 (stereo not drawn) [Compound A4],< 0.01
3,CNc1cc(C)nc(Nc2ccc(Cl)c(-n3cc(CN)cn3)c2Cl)n1 [Compound A6],< 0.01
4,CNCc1cn(-c2c(OC)cc3c(c2F)N=C(NC)C32CCC2)nn1 [Compound A21],0.01 to 0.1
5,CNC1=Nc2cc(-n3cc(C4CCCN4)nn3)c(Cl)cc2C12CCC2 (stereo not drawn) [Compound A2],< 0.01
6,"CNC1=Nc2cc(-c3cc4n(n3)CCN(C)C4)c(Cl)cc2C12CCC2 [Compound A12, 5′-chloro-N-methyl-6′-(5-methyl-4,5,6,7-tetrahydropyrazolo[1,5-a]145yrazine-2-yl)spiro[cyclobutane-1,3′-indol]-2′-amine]",0.1 to 1
7,"CNC1=Nc2cc(-c3cc4n(n3)CCNC4)c(Cl)cc2C12CCC2 [Compound A10, 5′-chloro-N-methyl-6′-(4,5,6,7-tetrahydropyrazolo[1,5-a]pyrazin-2-yl)spiro[cyclobutane-1,3′-indol]-2′-amine]",0.01 to 0.1
8,"CNc1cc(C)nc(Nc2ccc(OC)c(-n3cc4c(n3)CCNC4)c2F)n1 [Compound A19, N2-(2-fluoro-4-methoxy-3-(4,5,6,7-tetrahydro-2H-pyrazolo[4,3-c]pyridin-2-yl)phenyl)-N4,6-dimethylpyrimidine-2,4-diamine]",0.1 to 1
9,CNCc1cn(-c2c(OC)cc3c(c2F)N=C(N)C32CCC2)nn1 [Compound A22],0.01 to 0.1
10,"CNCc1cnn(-c2c(OC)ccc(Nc3nc(NC)cc(C(C)C)n3)c2F)c1 [Compound A8, N^2-(2-fluoro-4-methoxy-3-[4-[(methylamino)methyl]-1H-pyrazol-1-yl]phenyl)-N^4-methyl-6-(propan-2-yl)pyrimidine-2,4-diamine]",< 0.01
11,"CNC1=Nc2cc(-n3cc(CN4CCC4)cn3)c(Cl)cc2C12CCC2 [Compound A17, 6′-(4-(azetidin-1-ylmethyl)-1H-pyrazol-1-yl)-5′-chloro-N-methylspiro[cyclobutane-1,3′-indol]-2′-amine]",0.01 to 0.1
12,CNc1cc(C)nc(Nc2ccc(OC)c(-n3cc([C@H]4CCCN4)nn3)c2F)n1 [Compound A4R],< 0.01
13,"CNC1=Nc2cc(-n3cc([C@H]4CCCN4)nn3)c(Cl)cc2C12CCC2 [Compound A2R, (R)-5′-chloro-N-methyl-6′-(4-(pyrrolidin-2-yl)-1H-1,2,3-triazol-1-yl)spiro[cyclobutane-1,3′-indol]-2′-amine]",< 0.01
14,"CNC1=Nc2cc(-n3cc([C@@H]4CCCN4)nn3)c(Cl)cc2C12CCC2 [Compound A2S, (S)-5′-chloro-N-methyl-6′-(4-(pyrrolidin-2-yl)-1H-1,2,3-triazol-1-yl)spiro[cyclobutane-1,3′-indol]-2′-amine]",0.01 to 0.1

# Results, then the molecule that gave them:
row,IC50 [µM],Structure (SMILES)
1,0.1 to 1,CNc1cc(C)nc(Nc2ccc(OC)c(-n3cc(CNC(C)C)cn3)c2F)n1 [Compound A5]
2,0.1 to 1,"CNc1cc(C)nc(Nc2ccc(OC)c(-n3ncc4c3CCNC4)c2F)n1 [Compound A9, N2-(2-fluoro-4-methoxy-3-(4,5,6,7-tetrahydro-1H-pyrazolo[4,3-c]142yridine-1-yl)phenyl)-N4,6-dimethylpyrimidine-2,4-diamine]"
3,< 0.01,"CNCc1cn(-c2cc3c(cc2Cl)C2(CCC2)C(NC)=N3)nn1 [Compound A11, 5′-chloro-N-methyl-6′-(4-((methylamino)methyl)-1H-1,2,3-triazol-1-yl)spiro[cyclobutane-1,3′-indol]-2′-amine]"
4,< 0.01,"CNCc1cn(-c2c(OC)ccc(Nc3nc(C)cc(NC)n3)c2F)nn1 [Compound A3, N2-(2-fluoro-4-methoxy-3-[4-[(methylamino)methyl]-1H-1,2,3-triazol-1-yl]phenyl)-N4,6-dimethylpyrimidine-2,4-diamine]"
5,0.01 to 0.1,CCNCc1cnn(-c2c(OC)ccc(Nc3nc(C)cc(NC)n3)c2F)c1 [Compound A7]
6,< 0.01,CNCc1cn(-c2cc(Nc3nc(C)cc(NC)n3)ccc2Cl)nn1 [Compound A1]
7,0.01 to 0.1,"CNCc1cn(-c2cc3c(cc2Cl)C2(CCC2)C(N)=N3)nn1 [Compound A15, 5′-chloro-6′-(4-((methylamino)methyl)-1H-1,2,3-triazol-1-yl)spiro[cyclobutane-1,3′-indol]-2′-amine]"
